The values below come from publication PMC3532132, “High-resolution structures of AidH complexes provide insights into a novel catalytic mechanism for N-acyl homoserine lactonase” (Acta Crystallographica Section D: Biological Crystallography, 2012).

The target in the test is T1, AidH (Ochrobactrum sp. T63, UniProt D2J2T6).
T1 construct: full length (251 residues), pET22b(+), C-terminal His tag, E. coli BL21(DE3); monomer in solution; alpha/beta-hydrolase, metal-independent
T1 sequence (D2J2T6 1-271): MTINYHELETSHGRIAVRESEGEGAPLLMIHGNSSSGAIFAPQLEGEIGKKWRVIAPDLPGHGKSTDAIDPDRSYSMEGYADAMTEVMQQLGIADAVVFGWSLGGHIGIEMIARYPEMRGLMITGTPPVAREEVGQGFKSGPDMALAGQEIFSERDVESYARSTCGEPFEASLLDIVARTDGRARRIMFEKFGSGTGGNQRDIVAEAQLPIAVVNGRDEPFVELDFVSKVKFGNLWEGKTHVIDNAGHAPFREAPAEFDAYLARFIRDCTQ
The test can be described thus: X-ray crystal structure, […] A, soaked crystal. It is filed as binding. As to conditions: product of C4-HSL hydrolysis; active site, hydrogen bonds to Ser102, His248, Tyr160.

Structures are written as SMILES.

Take `CCCC(=O)N[C@@H](CCO)C(=O)O` [C4-HS, N-butanoyl homoserine]: the “X-ray crystal structure, 1.09 A, soaked crystal” value is on record as “crystal structure of wild-type AidH complexed with the product C4-HS (AidH–C4-HS) was determined”.
